Measured values published in patent US11465978B2, “Anthranilic amides and the use thereof” (THE ADMINISTRATORS OF THE TULANE EDUCATIONAL FUND, priority 2013, dated 2022).
Counter-ions that a name gives are not always drawn.

What was measured:
pERK5 = test: Western blot, inhibition of EGF-mediated formation of pERK5 in MDA-MB-231 cells; assay type: cell-based; details: for pERK-5 decrease (%) / pERK-5 relative activity (%): Example 3 table, MDA-MB-231, EGF stimulation; for pERK-5 decrease (%): DMSO = 0; for inhibition at 10 µM: Homo sapiens, MDA-MB-231, Table 1, MDA-MB-231, compounds 10 μM 30 min, then EGF 50 ng/mL 15 min, read-out: cellular pERK5 decrease (%); for pERK-5 relative activity (%): DMSO = 100; for cellular pERK5 activation (printed in the decrease column): Table 1, cell marked 'activation'
Method: (§1) FIG. 9 is a set of bar graphs showing a Western blot analysis of potential MEK5 inhibitors. The MDA-MB-231 triple negative breast cancer cell line was pretreated with compounds (10 μM) for 30 minutes followed by stimulation with epidermal growth factor (EGF, 50 ng/mL) for 15 minutes. Vehicle-treated cells were pretreated with DMSO for 30 minutes prior to EGF stimulation for 15 minutes. Protein visualization and quantification analysis were performed using LI-COR Odyssey Imager. * P<0.05 vs. Vehicle, one-way ANOVA followed by Tukey-Kramer test (n=3).
(§2) A number of compounds were tested for their potential as MEK5 inhibitors. The MDA-MB-231 triple negative breast cancer cell line was pretreated with 10 μM of compounds 24, 9b, 9a, 9c, 9e, 9f, 9d, 9h, 23, 7, and 15 for 30 minutes followed by stimulation with epidermal growth factor (EGF, 50 ng/mL) for 15 minutes. Vehicle-treated cells and known MEK1/2 inhibitor cells were pretreated with DMSO and U0126 respectively for 30 minutes prior to EGF stimulation for 15 minutes. Protein visualization and quantification analysis was performed using LI-COR Odyssey Imager. The results of the Western blot analysis are shown in FIG. 9. * P<0.05 vs. Vehicle, one-way ANOVA followed by Tukey-Kramer test (n=3).
(§3) MDA-MB-231 cells were grown on 10 cm cell culture plates [Sarstedt] in Dulbecco's Modified Eagle's Medium (DMEM; Gibco) with Ham's F12 Nutrient Mixture (1:1) (Invitrogen), 10% heat-inactivated FBS [Atlanta Biological and 0.5% penicillin/streptomycin [Gibco]. Cells were maintained at 37° C. with 5% CO2. Plating of the cells was done 36 hours before treatment in 35 mm culture plates [Sarstedt] and allowed to reach confluence. To test MEK-5 inhibitors, the cells were treated with epidermal growth factor (EGF; Sigma-Aldrich) 30 min after treatment with the compounds. 15 min after the addition of EGF, the cells were washed with 1×PBS [Sigma-Aldrich] and then lysed in 1% Triton X-100 buffer containing 20 mM Tris (pH 6.8), 137 mM NaCl, 25 mM beta glycerophosphate, 2 mM NaPPi, 2 mM EDTA, 1 mM Na3VO4, 10% glycerol, 5 μg/mL leupeptin, 5 μg/mL aprotinin, 2 mM benzamidine, 0.5 mM DTT, and 1 mM PMSF. The lysates were then centrifuged at 10,000 rpm for 10 min at 4° C.
(§4) Total protein content was assessed by Bradford Bio-Rad protein assay (Cat. No. 500-0006, Bio-Rad, Hercules, Calif.) and 30 μg of protein was loaded on a 8% SDS-PAGE gel for phosphorylated and total ERK1/2 and ERK5 proteins. After running the samples, gels were transferred to a nitrocellulose membrane (Cat. No. 926-31092, Licor Biosciences, Lincoln, Nebr.). After transfer, membranes were washed for 5 min with 1×PBS and blocked for 1 h in a Casein Blocking Buffer (Cat. No. 927-40200, Licor Biosciences) at room temperature. Membranes were then incubated overnight at 4° C. in primary antibody in CBB with 0.2% Tween-20. Antibodies included rabbit anti-phospho-ERK1/2 (Dilution—1:1000, Cat. No. 9101, Cell Signaling, Beverly, Mass.), mouse anti-total ERK1/2 (Dilution—1:1000, Cat. No. 9107, Cell Signaling), and rabbit anti-total ERK5 (Dilution—1:1,000, Cat. No. 3372, Cell Signaling). Mouse anti-α-Tubulin (Dilution—1:10,000, Cat. No. T5168, Sigma-Aldrich) was used as a loading control. After incubation with primary antibody, blots were washed in 1×PBS solution with 0.2% Tween-20 (1×PBS-T) and incubated with goat anti-rabbit (Dilution—1:10,000, Cat. No. 926-68021, LICOR Biosciences) and goat anti-mouse (Dilution—1:10,000, Cat. No. 926-32210, LICOR Biosciences) secondary antibodies for 1 h at room temperature. After washing the membranes with 1×PBS-T, the protein bands were visualized on an Odyssey Infrared Imager and quantified with Odyssey software (LICOR Biosciences).

pERK1/2 = test: Western blot, inhibition of EGF-mediated formation of pERK1/2 in MDA-MB-231 cells; assay type: cell-based; details: for pERK-½ decrease (%) / pERK-½ relative activity (%): Example 3 table, MDA-MB-231, EGF stimulation; for pERK-½ decrease (%): DMSO = 0; for inhibition at 10 µM: Homo sapiens, MDA-MB-231, Table 1, MDA-MB-231, compounds 10 μM 30 min, then EGF 50 ng/mL 15 min, read-out: cellular pERK1/2 decrease (%); for pERK-½ relative activity (%): DMSO = 100; for cellular pERK1/2 activation (printed in the decrease column): Table 1, cell marked 'activation'
Method: as §1, §2, §3, §4

## CN1CCN(C(=O)c2ccc(F)c(F)c2Nc2ccccc2F)CC1.O=C(O)/C=C/C(=O)O [SC-2-45, (3,4-difluoro-2-((2-fluorophenyl)amino)phenyl)(4-methylpiperazin-1-yl)methanone mono-fumarate]
pERK5
  pERK-5 decrease (%): 40.5%
pERK1/2
  pERK-½ decrease (%): 16.5%

## O=C(c1ccc(F)c(F)c1Nc1ccc(I)cc1F)N1CCOCC1 [IC-3-93]
pERK5
  inhibition at 10 µM: 76.3%
pERK1/2
  inhibition at 10 µM: 47.8%

## COC(=O)c1ccc(F)c(F)c1Nc1ccc(I)cc1F [Compound 9e, Methyl 3,4-difluoro-2-((2-fluoro-4-iodophenyl)amino)benzoate]
pERK5
  pERK-5 decrease (%): 13.0%
  inhibition at 10 µM: 13%
pERK1/2
  pERK-½ decrease (%): 98.9%
  inhibition at 10 µM: 98.9%

## CN(c1ccc(I)cc1F)c1c(C(=O)O)ccc(F)c1F [SC-2-32, 3,4-difluoro-2-((2-fluoro-4-iodophenyl)(methyl)amino)benzoic acid]
pERK5
  pERK-5 relative activity (%): 5.5%
pERK1/2
  pERK-½ decrease (%): 33.5%

## O=C(O)c1ccc(F)c(F)c1Nc1ccccc1F [Compound 13, 3,4-difluoro-2-((2-fluorophenyl)amino)benzoic acid]
pERK5
  pERK-5 decrease (%): 11.1%
pERK1/2
  pERK-½ relative activity (%): 7.1%

## O=C(NOC[C@H](O)CO)c1ccc(F)c(F)c1Nc1ccc(I)cc1F [PD 0325901, reference compound]
pERK5
  pERK-5 decrease (%): 95.9%
pERK1/2
  pERK-½ decrease (%): 99.7%

## CN1CCN(C(=O)c2ccccc2Nc2ccc(I)cc2F)CC1 [Compound 24, (2-((2-fluoro-4-iodophenyl)amino)phenyl)(4-methylpiperazin-1-yl)methanone hydrochloride]
pERK5
  pERK-5 decrease (%): 30.9%
  inhibition at 10 µM: 20.9%
pERK1/2
  pERK-½ decrease (%): 33.5%
  inhibition at 10 µM: 33.5%

## O=C(N[C@H](CO)C(=O)O)c1ccc(F)c(F)c1Nc1ccc(I)cc1F [IC-3-117]
pERK5
  inhibition at 10 µM: 127%
pERK1/2
  inhibition at 10 µM: 80.8%

## CN(C)C(=O)c1ccc(F)c(F)c1Nc1ccc(I)cc1F [Compound 9a, 3,4-difluoro-2-((2-fluoro-4-iodophenyl)amino)-N,N-dimethylbenzamide]
pERK5
  pERK-5 decrease (%): 0.2%
  inhibition at 10 µM: 0.2%
pERK1/2
  pERK-½ decrease (%): 87.3%
  inhibition at 10 µM: 87.3%

## N#CC(=C(/N)Sc1ccccc1N)/C(C#N)=C(\N)Sc1ccccc1N [Compound U0126, reference compound]
pERK5
  pERK-5 decrease (%): 43%
pERK1/2
  pERK-½ decrease (%): 99.6%

## CN1CCN(C(=O)c2ccc(F)c(F)c2Nc2ccc(I)cc2F)CC1 [IC-D-122b]
pERK5
  inhibition at 10 µM: 33%
pERK1/2
  inhibition at 10 µM: 39%

## CN1CCN(C(=O)c2ccc(F)c(F)c2Nc2ccccc2)CC1 [Compound 15]
pERK5
  pERK-5 decrease (%): 82.4%
  inhibition at 10 µM: 82.4%
pERK1/2
  pERK-½ relative activity (%): 8.5%
  cellular pERK1/2 activation (printed in the decrease column): activation (+8.5) %

## O=C(c1ccc(F)c(F)c1Nc1ccc(I)cc1F)N1CCNCC1 [Compound 9f, (3,4-difluoro-2-((2-fluoro-4-iodophenyl)amino)phenyl)(piperazin-1-yl)methanone hydrochloride]
pERK5
  pERK-5 relative activity (%): 6.2%
  cellular pERK5 activation (printed in the decrease column): activation (+4.4) %
pERK1/2
  pERK-½ decrease (%): 99.0%
  inhibition at 10 µM: 99%

## CC(C)(C)OC(=O)N1CCN(C(=O)c2ccc(F)c(F)c2Nc2ccc(I)cc2F)CC1 [Compound 9g, Tert-butyl 4-(3,4-difluoro-2-((2-fluoro-4-iodophenyl)amino)benzoyl)piperazine-1-carboxylate]
pERK5
  pERK-5 decrease (%): 8.4%
  inhibition at 10 µM: 8.4%
pERK1/2
  pERK-½ decrease (%): 70.9%
  inhibition at 10 µM: 70.9%

## CN1CCN(C(=O)c2ccccc2Nc2ccccc2)CC1 [Compound 23, (4-methylpiperazin-1-yl)(2-(phenylamino)phenyl)methanone]
pERK5
  pERK-5 decrease (%): 71%
pERK1/2
  pERK-½ decrease (%): 29.3%
  inhibition at 10 µM: 29.6%
  cellular pERK1/2 activation (printed in the decrease column): +5.5%

## CN(C)CCN(C)C(=O)c1ccc(F)c(F)c1Nc1ccc(I)cc1F [Compound 9h, N-(2-(dimethylamino)ethyl)-3,4-difluoro-2-((2-fluoro-4-iodophenyl)amino)-N-methylbenzamide hydrochloride]
pERK5
  pERK-5 decrease (%): 9.4%
  inhibition at 10 µM: 9%
pERK1/2
  pERK-½ decrease (%): 27.9%
  inhibition at 10 µM: 28.2%

## O=C(NCCO)c1ccc(F)c(F)c1Nc1ccc(I)cc1F [IC-3-102]
pERK5
  inhibition at 10 µM: 47.9%
pERK1/2
  inhibition at 10 µM: -31.1%

## CCNC(=O)c1ccc(F)c(F)c1Nc1ccc(I)cc1F [Compound 9d, N-ethyl-3,4-difluoro-2-((2-fluoro-4-iodophenyl)amino)benzamide]
pERK5
  pERK-5 decrease (%): 8.5%
  inhibition at 10 µM: 8.5%
pERK1/2
  pERK-½ decrease (%): 98.6%
  inhibition at 10 µM: 98.6%

## CNC(=O)c1ccc(F)c(F)c1Nc1ccc(I)cc1F [Compound 9c, 3,4-difluoro-2-((2-fluoro-4-iodophenyl)amino)-N-methylbenzamide]
pERK5
  pERK-5 decrease (%): 20.4%
  inhibition at 10 µM: 20.4%
pERK1/2
  pERK-½ decrease (%): 99.6%
  inhibition at 10 µM: 99.6%

## O=C(N[C@@H](CO)C(=O)O)c1ccc(F)c(F)c1Nc1ccc(I)cc1F [IC-3-111]
pERK1/2
  inhibition at 10 µM: 85%

## CCOc1cc(N2CCC(O)CC2)ccc1Nc1ncc2c(n1)N(C)c1ccccc1C(=O)N2C [XMD8-92, reference compound]
pERK5
  pERK-5 decrease (%): 95.2%
pERK1/2
  pERK-½ decrease (%): 50.1%

## O=C(O)c1ccc(F)c(F)c1Nc1ccc(I)cc1F [Compound 7, 3,4-difluoro-2-((2-fluoro-4-iodophenyl)amino)benzoic acid]
pERK5
  pERK-5 decrease (%): 20.1%
  inhibition at 10 µM: 20.1%
pERK1/2
  pERK-½ decrease (%): 98.5%
  inhibition at 10 µM: 98.5%

## O=C(O)c1ccc(F)c(F)c1Nc1ccccc1 [Compound 12, 3,4-difluoro-2-(phenylamino)benzoic acid]
pERK5
  pERK-5 decrease (%): 10.4%
pERK1/2
  pERK-½ decrease (%): 7.1%

## CCN(CC)C(=O)c1ccc(F)c(F)c1Nc1ccc(I)cc1F [Compound 9b, N,N-diethyl-3,4-difluoro-2-((2-fluoro-4-iodophenyl)amino)benzamide]
pERK5
  pERK-5 relative activity (%): 7.4%
  cellular pERK5 activation (printed in the decrease column): activation (−7.4) %
pERK1/2
  pERK-½ decrease (%): 5.5%
  inhibition at 10 µM: 5.5%
